Source: patent US20080051284A1, “Fungicidal Mixtures for Controlling Rice Pathogens” (BASF AKTIENGESELLSCHAFT, priority 2003, published 2008)

Tested on: Corticium sasakii
Assay: Activity against sheath blight on rice caused by Corticium sasakii (protective spray, rice plants cultivar Tai-Nong 67)
Type: in vivo
Details: individual active compound, 11 days after infection
Procedure: The active compounds, separately or jointly, were prepared as a stock solution with 0.25% by weight of active compound in acetone or DMSO. 1% by weight of the emulsifier Uniperol® EL (wetting agent having emulsifying and dispersing action based on ethoxylated alkylphenols) was added to this solution, and the solution was diluted with water to the desired concentration.
Use Example—Activity Against Sheath Blight on Rice Caused by Corticium sasakii
Pots of rice plants of the cultivar “Tai-Nong 67” were sprayed to runoff point with an aqueous suspension having the concentration of active compound stated below. The next day, oat grains infected with Corticium sasakii were placed into the pots (in each case 5 grains per pot). The plants were then placed in a chamber at 26° C. and maximum atmospheric humidity. After 11 days, the sheath blight on the untreated but infected control plants had developed to such an extent that the infection could be determined visually in %.
Evaluation is carried out by determining the infected leaf areas in percent. These percentages were converted into efficacies.
The efficacy (E) is calculated as follows using Abbot's formula:
E=(1−α/β)·100 • α corresponds to the fungicidal infection of the treated plants in % and • β corresponds to the fungicidal infection of the untreated (control) plants in %
An efficacy of 0 means that the infection level of the treated plants corresponds to that of the untreated control plants; an efficacy of 100 means that the treated plants are not infected.
The expected efficacies of the mixtures of active compounds are determined using Colby's formula [R. S. Colby, Weeds 15, 20-22 (1967)] and compared with the observed efficacies.
E=x+y−x·y/100 • E expected efficacy, expressed in % of the untreated control, when using the mixture of the active compounds A and B at the concentrations a and b • x efficacy, expressed in % of the untreated control, when using active compound A at the concentration a • y efficacy, expressed in % of the untreated control, when using active compound B at the concentration b

SMILES: CC1CCN(c2c(-c3c(F)cccc3Cl)c(Cl)nc3ncnn23)CC1 [A]
- Efficacy in % of the untreated control (4 ppm in the spray liquor): 12%

SMILES: CC(Nc1c(-c2c(F)cc(F)cc2F)c(Cl)nc2ncnn12)C(F)(F)F (stereo not drawn) [B]
- Efficacy in % of the untreated control (4 ppm in the spray liquor): 56%

SMILES: CC1CCN(c2c(-c3c(F)cc(F)cc3F)c(Cl)nc3ncnn23)CC1 [I, 5-chloro-7-(4-methylpiperidin-1-yl)-6-(2,4,6-trifluorophenyl)-[1,2,4]tri-azolo[1,5-a]pyrimidine]
- Efficacy in % of the untreated control (4 ppm in the spray liquor): 34%

SMILES: N#Cc1c(Cl)c(Cl)c(Cl)c(C#N)c1Cl [II, 2,4,5,6-tetrachloroisophthalonitrile]
- Efficacy in % of the untreated control (1 ppm in the spray liquor): 0%
- Efficacy in % of the untreated control (4 ppm in the spray liquor): 0%
- Efficacy in % of the untreated control (16 ppm in the spray liquor): 0%
